Reference: PubChem BioAssay (NCI)
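Cells were grown in 96-well plates and exposed to each compound for 48 hours at five concentrations; endpoints were interpolated linearly between bracketing concentrations, or set to the highest concentration if not reached. Here, GI50 denotes the concentration required for 50% inhibition of growth. TGI is the concentration that stops growth completely.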

Key:
Experiment in all cases: inhibition of tumour cell growth, NCI panel, 48 h
T-47D breast = tested on: T-47D breast
RXF 393 renal = tested on: RXF 393 renal
SN12C renal = tested on: SN12C renal
HCT-15 colon = tested on: HCT-15 colon
SF-295 CNS = tested on: SF-295 CNS
A498 renal = tested on: A498 renal
HS 578T breast = tested on: HS 578T breast
COLO 205 colon = tested on: COLO 205 colon
CAKI-1 renal = tested on: CAKI-1 renal
UO-31 renal = tested on: UO-31 renal
NCI-H460 lung = tested on: NCI-H460 lung
LOX IMVI melanoma = tested on: LOX IMVI melanoma
MOLT-4 leukemia = tested on: MOLT-4 leukemia
KM12 colon = tested on: KM12 colon
SNB-75 CNS = tested on: SNB-75 CNS
HL-60(TB) leukemia = tested on: HL-60(TB) leukemia
MDA-MB-435 = tested on: MDA-MB-435
DU-145 prostate = tested on: DU-145 prostate
A549 NSCLC = tested on: A549 NSCLC
HOP-62 NSCLC = tested on: HOP-62 NSCLC
OVCAR-8 ovarian = tested on: OVCAR-8 ovarian
SW-620 colon = tested on: SW-620 colon
PC-3 prostate = tested on: PC-3 prostate
SR leukemia = tested on: SR leukemia
U251 CNS = tested on: U251 CNS
HOP-92 NSCLC = tested on: HOP-92 NSCLC
BT-549 breast = tested on: BT-549 breast
RPMI-8226 leukemia = tested on: RPMI-8226 leukemia
CCRF-CEM leukemia = tested on: CCRF-CEM leukemia
M14 melanoma = tested on: M14 melanoma
MDA-MB-231 breast = tested on: MDA-MB-231 breast
UACC-257 melanoma = tested on: UACC-257 melanoma
SK-MEL-28 melanoma = tested on: SK-MEL-28 melanoma
HCC-2998 colon = tested on: HCC-2998 colon
NCI/ADR-RES ovarian = tested on: NCI/ADR-RES ovarian
NCI-H226 lung = tested on: NCI-H226 lung
SF-539 CNS = tested on: SF-539 CNS
MCF7 breast = tested on: MCF7 breast
TK-10 renal = tested on: TK-10 renal
NCI-H23 lung = tested on: NCI-H23 lung
ACHN renal = tested on: ACHN renal
SK-MEL-5 melanoma = tested on: SK-MEL-5 melanoma
SK-OV-3 ovarian = tested on: SK-OV-3 ovarian
OVCAR-4 ovarian = tested on: OVCAR-4 ovarian
HT29 colon = tested on: HT29 colon
OVCAR-3 ovarian = tested on: OVCAR-3 ovarian
SNB-19 CNS = tested on: SNB-19 CNS
OVCAR-5 ovarian = tested on: OVCAR-5 ovarian
IGROV1 ovarian = tested on: IGROV1 ovarian
MALME-3M melanoma = tested on: MALME-3M melanoma
K-562 leukemia = tested on: K-562 leukemia
786-0 renal = tested on: 786-0 renal
UACC-62 melanoma = tested on: UACC-62 melanoma
SK-MEL-2 melanoma = tested on: SK-MEL-2 melanoma
HCT-116 colon = tested on: HCT-116 colon
SF-268 CNS = tested on: SF-268 CNS
NCI-H522 lung = tested on: NCI-H522 lung
EKVX NSCLC = tested on: EKVX NSCLC

CC(C)N(Cc1ccc(F)cc1)c1ccc(CO)c(Cl)c1
GI50 (T-47D breast): 0.0645 µM
TGI (T-47D breast): 0.515 µM
GI50 (RXF 393 renal): 2.51 µM
TGI (RXF 393 renal): 19.6 µM
GI50 (SN12C renal): 10.8 µM
TGI (SN12C renal): 23.2 µM
GI50 (HCT-15 colon): 5.23 µM
TGI (HCT-15 colon): 20.7 µM
GI50 (SF-295 CNS): 0.25 µM
TGI (SF-295 CNS): 11.8 µM
GI50 (A498 renal): 0.0225 µM
TGI (A498 renal): 0.134 µM
GI50 (HS 578T breast): 14.8 µM
TGI (HS 578T breast): 37.8 µM
GI50 (COLO 205 colon): 1.03 µM
TGI (COLO 205 colon): 7.17 µM
GI50 (CAKI-1 renal): 0.245 µM
TGI (CAKI-1 renal): 2.02 µM
GI50 (UO-31 renal): 0.732 µM
TGI (UO-31 renal): 14.2 µM
GI50 (NCI-H460 lung): 0.144 µM
TGI (NCI-H460 lung): 10.7 µM
GI50 (LOX IMVI melanoma): 8.35 µM
TGI (LOX IMVI melanoma): 21.6 µM
GI50 (MOLT-4 leukemia): 11 µM
TGI (MOLT-4 leukemia): 32.6 µM
GI50 (KM12 colon): 10.9 µM
TGI (KM12 colon): 23.4 µM
GI50 (SNB-75 CNS): 9.21 µM
TGI (SNB-75 CNS): 23.3 µM
GI50 (HL-60(TB) leukemia): 3.15 µM
TGI (HL-60(TB) leukemia): 21.8 µM
GI50 (MDA-MB-435): 15 µM
TGI (MDA-MB-435): 29.5 µM
GI50 (DU-145 prostate): 11.1 µM
TGI (DU-145 prostate): 23.3 µM
GI50 (A549 NSCLC): 1.03 µM
TGI (A549 NSCLC): 17.5 µM
GI50 (HOP-62 NSCLC): 1.14 µM
TGI (HOP-62 NSCLC): 17.6 µM
GI50 (OVCAR-8 ovarian): 10.6 µM
TGI (OVCAR-8 ovarian): 25 µM
GI50 (SW-620 colon): 0.363 µM
TGI (SW-620 colon): 15.3 µM
GI50 (PC-3 prostate): 11.4 µM
TGI (PC-3 prostate): 24.2 µM
GI50 (SR leukemia): 12.8 µM
TGI (SR leukemia): 32.5 µM
GI50 (U251 CNS): 0.37 µM
TGI (U251 CNS): 14.4 µM
GI50 (HOP-92 NSCLC): 0.205 µM
TGI (HOP-92 NSCLC): 4.22 µM
GI50 (BT-549 breast): 12.3 µM
TGI (BT-549 breast): 25.7 µM
GI50 (RPMI-8226 leukemia): 1.46 µM
TGI (RPMI-8226 leukemia): 20.1 µM
GI50 (CCRF-CEM leukemia): 12.1 µM
TGI (CCRF-CEM leukemia): 33.4 µM
GI50 (M14 melanoma): 13 µM
TGI (M14 melanoma): 28.8 µM
GI50 (MDA-MB-231 breast): 12.4 µM
TGI (MDA-MB-231 breast): 25.6 µM
GI50 (UACC-257 melanoma): 0.0837 µM
TGI (UACC-257 melanoma): 0.316 µM
GI50 (SK-MEL-28 melanoma): 14 µM
TGI (SK-MEL-28 melanoma): 27.2 µM
GI50 (HCC-2998 colon): 2.81 µM
TGI (HCC-2998 colon): 20 µM
GI50 (NCI/ADR-RES ovarian): 10.4 µM
TGI (NCI/ADR-RES ovarian): 23.8 µM
GI50 (NCI-H226 lung): 0.054 µM
TGI (NCI-H226 lung): 0.179 µM
GI50 (SF-539 CNS): 13.4 µM
TGI (SF-539 CNS): 26.5 µM
GI50 (MCF7 breast): 0.181 µM
TGI (MCF7 breast): 13.2 µM
GI50 (TK-10 renal): 0.0283 µM
TGI (TK-10 renal): 0.173 µM
GI50 (NCI-H23 lung): 3.31 µM
TGI (NCI-H23 lung): 21.8 µM
GI50 (ACHN renal): 8.08 µM
TGI (ACHN renal): 20.9 µM
GI50 (SK-MEL-5 melanoma): 8.67 µM
TGI (SK-MEL-5 melanoma): 21.8 µM
GI50 (SK-OV-3 ovarian): 4.83 µM
TGI (SK-OV-3 ovarian): 17.9 µM
GI50 (OVCAR-4 ovarian): 0.116 µM
TGI (OVCAR-4 ovarian): 1.7 µM
GI50 (HT29 colon): 1.81 µM
TGI (HT29 colon): 14.1 µM
GI50 (OVCAR-3 ovarian): 0.184 µM
TGI (OVCAR-3 ovarian): 0.623 µM
GI50 (SNB-19 CNS): 12.2 µM
TGI (SNB-19 CNS): 25.3 µM
GI50 (OVCAR-5 ovarian): 0.0576 µM
TGI (OVCAR-5 ovarian): 0.247 µM
GI50 (IGROV1 ovarian): 0.0479 µM
TGI (IGROV1 ovarian): 0.266 µM
GI50 (MALME-3M melanoma): 14.4 µM
TGI (MALME-3M melanoma): 30.3 µM
GI50 (K-562 leukemia): 0.468 µM
TGI (K-562 leukemia): 12.9 µM
GI50 (786-0 renal): 7 µM
TGI (786-0 renal): 22.1 µM
GI50 (UACC-62 melanoma): 0.0664 µM
TGI (UACC-62 melanoma): 0.4 µM
GI50 (SK-MEL-2 melanoma): 1.61 µM
TGI (SK-MEL-2 melanoma): 16.6 µM
GI50 (HCT-116 colon): 0.0415 µM
TGI (HCT-116 colon): 3.75 µM
GI50 (SF-268 CNS): 13.1 µM
TGI (SF-268 CNS): 26.4 µM
GI50 (NCI-H522 lung): 11.3 µM
TGI (NCI-H522 lung): 26.7 µM

CN1C(=NCCO)NS(=O)(=O)c2ccccc21
TGI (T-47D breast): > 100 µM
TGI (RXF 393 renal): > 100 µM
TGI (SN12C renal): > 100 µM
TGI (HCT-15 colon): > 100 µM
TGI (SF-295 CNS): > 100 µM
TGI (A498 renal): > 100 µM
TGI (HS 578T breast): > 100 µM
TGI (COLO 205 colon): > 100 µM
TGI (CAKI-1 renal): > 100 µM
TGI (UO-31 renal): > 100 µM
TGI (NCI-H460 lung): > 100 µM
TGI (LOX IMVI melanoma): > 100 µM
TGI (MOLT-4 leukemia): > 100 µM
TGI (KM12 colon): > 100 µM
TGI (EKVX NSCLC): > 100 µM
TGI (HL-60(TB) leukemia): > 100 µM
TGI (MDA-MB-435): > 100 µM
TGI (DU-145 prostate): > 100 µM
TGI (A549 NSCLC): > 100 µM
TGI (HOP-62 NSCLC): > 100 µM
TGI (OVCAR-8 ovarian): > 100 µM
TGI (SW-620 colon): > 100 µM
TGI (PC-3 prostate): > 100 µM
TGI (SR leukemia): > 100 µM
TGI (U251 CNS): > 100 µM
TGI (HOP-92 NSCLC): > 100 µM
TGI (BT-549 breast): > 100 µM
TGI (CCRF-CEM leukemia): > 100 µM
TGI (M14 melanoma): > 100 µM
TGI (MDA-MB-231 breast): > 100 µM
TGI (UACC-257 melanoma): > 100 µM
TGI (SK-MEL-28 melanoma): > 100 µM
TGI (HCC-2998 colon): > 100 µM
TGI (NCI/ADR-RES ovarian): > 100 µM
TGI (NCI-H226 lung): > 100 µM
TGI (SF-539 CNS): > 100 µM
TGI (MCF7 breast): > 100 µM
TGI (TK-10 renal): > 100 µM
TGI (NCI-H23 lung): > 100 µM
TGI (ACHN renal): > 100 µM
TGI (SK-MEL-5 melanoma): > 100 µM
TGI (SK-OV-3 ovarian): > 100 µM
TGI (OVCAR-4 ovarian): > 100 µM
TGI (HT29 colon): > 100 µM
TGI (OVCAR-3 ovarian): > 100 µM
TGI (SNB-19 CNS): > 100 µM
TGI (OVCAR-5 ovarian): > 100 µM
TGI (IGROV1 ovarian): > 100 µM
TGI (K-562 leukemia): > 100 µM
TGI (786-0 renal): > 100 µM
TGI (UACC-62 melanoma): > 100 µM
TGI (SK-MEL-2 melanoma): > 100 µM
TGI (HCT-116 colon): > 100 µM
TGI (SF-268 CNS): > 100 µM
TGI (NCI-H522 lung): > 100 µM
